Among the data in article PMC8279492, “Quinolinonyl Non-Diketo Acid Derivatives as Inhibitors of HIV-1 Ribonuclease H and Polymerase Functions of Reverse Transcriptase” (Journal of Medicinal Chemistry, 2021) are IC50, CC50 and EC50 values, retold here.

By IC50 is commonly meant the concentration needed to halve the response being measured. As usually defined, the CC50 is the concentration that lowers cell viability or growth by half. A higher CC50 goes with lower toxicity to the cells. A word on the EC50: it is the concentration at which the effect is half-maximal.

The target of one series is RNase H. The note with it: cited from earlier work.
In a further series the test system is IN. The note with it: read-out: IN inhibitory activity IC50; cited from earlier work.
Another series concerns the target HIV-1 IN (Human immunodeficiency virus type 1 group M subtype B, UniProt P12497). Description: biochemical. How it is done: His-tagged NL4-3 IN was expressed from a pET15b plasmid in the E. coli BL21 pLys strain. Recombinant protein was purified as previously described[67] following a batch preparation on Ni-NTA beads (Qiagen, Paris, France).
Both oligonucleotides were purchased from Integrated DNA Technologies, Inc. (Coralville, IA), and the gel was purified in-house. ST reactions were performed by adding molecules or an equivalent volume of 100% dimethyl sulfoxide (DMSO, used as the drug solvent) to a mixture of 20 nM duplex DNA substrate and 400 nM IN in 50 mM MOPS pH 7.2, 7.5 mM MgCl2, and 14 mM 2-mercaptoethanol. Mixtures were incubated at 37 °C for 2 h, and the reaction was quenched by addition of an equal volume of loading buffer [formamide containing 1% sodium dodecyl sulfate (SDS), 0.25% bromophenol blue, and xylene cyanol]. […] Dried gels were visualized using a FLA5000 (Fuji Photo Film, Tokyo, Japan). Densitometric analyses were performed using ImageQuant 5.1 software from GE Healthcare.

In the next series the target is T1, Y501A HIV-1 RT RNase H (Human immunodeficiency virus type 1 group M subtype B, UniProt P03366, Y1100A).
T1 construct: Amino acid substitutions were introduced into the p66 HIV-1 RT subunit of a HIV-1 RT; His; made in house; host or cells: Escherichia coli M15
Description: RNase H assay, point-mutant Y501A RT. In kind it is biochemical. Here is the method: (§1) An activity curve was performed for all of the enzymes (Figure S1), and a concentration was chosen in the linear dose-response range to perform the enzymatic-inhibition assays.
(§2) Amino acid substitutions were introduced into the p66 HIV-1 RT subunit of a HIV-1 RT using a QuikChange mutagenesis kit, following the manufacturer’s instructions (Agilent Technologies Inc., Santa Clara, CA).
(§3) The HIV-1 RT-associated RNase H activity was measured as described.[68] Briefly, the reaction was carried out in a black 96-well plate in a total volume of 100 μL. […] Experiments were performed in duplicate and replicated at least two times. Data were analyzed as described.[36]

The target of a further series is T2, K540A HIV-1 RT RNase H (Human immunodeficiency virus type 1 group M subtype B, UniProt P03366, K1139A).
T2 construct: Amino acid substitutions were introduced into the p66 HIV-1 RT subunit of a HIV-1 RT; His; made in house; host or cells: Escherichia coli M15
The series can be described thus: RNase H assay, point-mutant K540A RT. In kind it is biochemical. How it is done:
as §1, §2, §3

Another series deals with T3, Q475A HIV-1 RT RNase H (Human immunodeficiency virus type 1 group M subtype B, UniProt P03366, Q1074A).
T3 construct: Amino acid substitutions were introduced into the p66 HIV-1 RT subunit of a HIV-1 RT; His; made in house; host or cells: Escherichia coli M15
The series can be described thus: RNase H assay, point-mutant Q475A RT. It counts as biochemical. How it is done:
as §1, §2, §3

The next series deals with T4, R448A HIV-1 RT RNase H (Human immunodeficiency virus type 1 group M subtype B, UniProt P03366, R1047A).
T4 construct: Amino acid substitutions were introduced into the p66 HIV-1 RT subunit of a HIV-1 RT; His; made in house; host or cells: Escherichia coli M15
Description: RNase H assay, point-mutant R448A RT. It counts as biochemical. Here is the method: as §1, §2, §3

Another series deals with T5, N474A HIV-1 RT RNase H (Human immunodeficiency virus type 1 group M subtype B, UniProt P03366, N1073A).
T5 construct: Amino acid substitutions were introduced into the p66 HIV-1 RT subunit of a HIV-1 RT; His; made in house; host or cells: Escherichia coli M15
The series can be described thus: RNase H assay, point-mutant N474A RT. It counts as biochemical. How it is done: as §1, §2, §3

Series [1] concerns the target T6, HIV-1 RT-associated RNase H activity (Human immunodeficiency virus type 1 group M subtype B, UniProt P03366).
T6 construct: His-tagged p66/p51 HIV-1 RT group M subtype B; His; made in house; host or cells: Escherichia coli M15
The series can be described thus: biochemical. It counts as biochemical. Here is the method:
(11) and β-thujaplicinol (BTP) used as positive controls.
(§4) His-tagged p66/p51 HIV-1 RT group M subtype B coded in a p6HRT-prot plasmid was expressed in the Escherichia coli strain M15.[65] Heterodimeric RTs were expressed essentially and purified as described.[66]
as §3

Series [2] in a line: Compounds' toxicity, CellTiter 96 AQueous One Solution Cell Proliferation Assay. The settings on record: human, HeLa-CD4-LTR-β-gal cells, CC50 (cytotoxic concentration 50%), 24 h. It counts as cell-based. Here is the method: (§5) HIV-1 replication was monitored using HeLa-CD4-LTR-β-gal reporter cells as previously described.[69] Briefly, β-galactosidase activity was monitored 24 h post infection using a replication-competent HIV produced in-house (H9-laï coculture) and a serial dilution of molecules or an equivalent volume of DMSO. In parallel, compounds’ toxicity was determined at 24 h in the same cell line using CellTiter 96 AQueous One Solution Cell Proliferation Assay (Promega, France).

A further series has as its target T7, W535A HIV-1 RT RNase H (Human immunodeficiency virus type 1 group M subtype B, UniProt P03366, W1134A).
T7 construct: Amino acid substitutions were introduced into the p66 HIV-1 RT subunit of a HIV-1 RT; His; made in house; host or cells: Escherichia coli M15
The series can be described thus: RNase H assay, point-mutant W535A RT. In kind it is biochemical. Here is the method: as §1, §2, §3

For the next series, the target named is T8, K451A HIV-1 RT RNase H (Human immunodeficiency virus type 1 group M subtype B, UniProt P03366, K1050A).
T8 construct: Amino acid substitutions were introduced into the p66 HIV-1 RT subunit of a HIV-1 RT; His; made in house; host or cells: Escherichia coli M15
The series can be described thus: RNase H assay, point-mutant K451A RT. It counts as biochemical. Here is the method: as §1, §2, §3

The target in another series is T9, HIV-1 RT-RDDP activity (Human immunodeficiency virus type 1 group M subtype B, UniProt P03366).
T9 construct: His-tagged p66/p51 HIV-1 RT group M subtype B; His; made in house; host or cells: Escherichia coli M15
The series can be described thus: Polymerase assay (RNA-dependent DNA polymerase). It counts as biochemical. Here is the method: as §4
The HIV-1 RT-associated RNA-dependent DNA polymerase activity was measured as described.[65] Briefly, the reaction was carried out in a black 96-well plate in a total volume of 25 μL. Serial dilutions of compounds were added to the reaction mix containing 60 mM Tris HCl buffer pH 8.1, 8 mM MgCl2, 60 mM KCl, 13 mM DTT, 2.5 mM poly(A)-oligo(dT), and […].

The test system of another series is HIV-1 replication. The series can be described thus: HIV-1 replication in HeLa-CD4-LTR-β-gal reporter cells. It counts as cell-based. The note with it: Human immunodeficiency virus 1, 24 h, read-out: antiviral activity EC50. How it is done:
as §5

In the case of `O=C(O)/C(O)=C/C(=O)c1cn(Cc2ccc(F)cc2)c2cc(N3CCCC3)ccc2c1=O` [compound 2], the IC50 on RNase H was 5.1 µM; in the series with IN, 0.028 µM.

As for `O=C(O)c1cn(Cc2ccc(F)cc2)c2ccc(OCc3cccc4ccccc34)cc2c1=O` [4o, 1-(4-Fluorobenzyl)-6-(naphthalen-1-ylmethoxy)-4-oxo-1,4-dihydroquinoline-3-carboxylic Acid], the IC50 on HIV-1 IN was > 100 µM; against Y501A HIV-1 RT RNase H it was > 100 µM; on K540A HIV-1 RT RNase H, 31.6 ± 1.2 µM; on Q475A HIV-1 RT RNase H, > 100 µM; on R448A HIV-1 RT RNase H, 19.6 ± 1.24 µM; against N474A HIV-1 RT RNase H it was 85.8 ± 1.6 µM. The half-inhibitory concentration (IC50) is 1.51 ± 0.21 µM in [1] (anti-RH activity (IC50 ± SD), HIV-1 RT-associated RNase H activity, dose-response curves, no preincubation); 5.2 ± 1.1 µM in series [1] (wt (RH IC50, uM), supplement CSV, mutagenesis study); > 100 µM against W535A HIV-1 RT RNase H; 11.8 ± 1.2 µM against K451A HIV-1 RT RNase H; 11.4 ± 2.6 µM at HIV-1 RT-RDDP activity. Further, half-maximal cytotoxicity in series [2] (CC50 at 24 h) was put at 51 ± 11 µM. Also, the EC50 with HIV-1 replication came out at 8.4 ± 0.7 µM.
